Results as given in patent US6204284A, “Use of 1-(substitutedphenyl)-3-azabicyclo[3.1.0]hexanes for the treatment of chemical dependencies” (priority 1995, dated 2001).
Values joined by “and” are separate entries in the source; they are usually repeats but may differ in a detail not shown here. Identical values can stand only once. “Also recorded” adds a separate entry of the source.

Key:
[1] = test system: Dopamine (DA) reuptake in rat brain synaptosomes; assay: Inhibition of rat synaptosomal uptake of 3H-dopamine; assay type: biochemical; settings: rat striatal crude synaptosomes; 3H-DA 2×10^-8 M; Hill analysis
Source text: (§1) Male Wistar rats weighing approximately 180-200 g are decapitated and their brains rapidly removed and dissected according to the method of Glowinski and Iversen. Glowinski, J. and Iversen, L. L., Regional studies of catecholamines in the rat brain I. The disposition of 3H-norepinephrine, 3H-dopamine and 3H-DOPA in various regions of the brain. J. Neurochem. 13:655-669, 1966.
Striatal tissues are pooled from three rat brains for the uptake of 3H-dopamine (3H-DA) and diencephalic-mid brain areas were used for the uptake of 3H-norepinephrine (3H-NE) and 3H-serotonin (3H-5HT). The tissues are immediately weighed and homogenized with a teflon-glass pestle homogenizer in 10 volumes of ice cold 0.32 M sucrose. […]
Amine uptake in crude synaptosomes is determined by a method essentially the same as that described by Snyder and Coyle, Snyder, S. H. and Coyle, J. T. Regional differences in 3H-norepinephrine and 3H-dopamine uptake into rat brain homogenates. […] The pellet is resuspended in a cintillation fluid ad radioactivity was determined. Protein content in the tissue samples is determined by the method of Lowry et al. Lowry, O. H., Rosebrough, N. J., Farr, A. L. and Randall, R. J. Protein measurement with the folin reagent. […] The concentration of drug which inhibits the uptake of the labeled amine by 50% is determined by Hill analysis of the data.

[2] = test system: Norepinephrine (NE) reuptake in rat brain synaptosomes; assay: Inhibition of rat synaptosomal uptake of 3H-norepinephrine; assay type: biochemical; settings: rat diencephalic-mid brain crude synaptosomes; 3H-NE 2×10^-8 M; Hill analysis
Source text: as §1
(§2) Striatal tissues are pooled from three rat brains for the uptake of 3H-dopamine (3H-DA) and diencephalic-mid brain areas were used for the uptake of 3H-norepinephrine (3H-NE) and 3H-serotonin (3H-5HT). The tissues are immediately weighed and homogenized with a teflon-glass pestle homogenizer in 10 volumes of ice cold 0.32 M sucrose. The homogenates are centrifuged at 4° C. at 900×g for 10 minutes to remove nuclear particles and cellular debris. The supernatants are carefully withdrawn and transferred into clean test tubes kept in ice. Aliquots of these preparations containing crude synaptic nerve endings are used in subsequent uptake studies.
(§3) Amine uptake in crude synaptosomes is determined by a method essentially the same as that described by Snyder and Coyle, Snyder, S. H. and Coyle, J. T. Regional differences in 3H-norepinephrine and 3H-dopamine uptake into rat brain homogenates. J. Pharmacol. Exp. Ther. 165:78-86, 1969. Briefly, a 0.1 ml aliquot of the above tissue preparation is added to test tubes containing 3.7 ml of Krebs-Ringer phosphate buffer pH 7.4 with glucose (2 mg/ml), calcium chloride 0.024%, ascorbic acid (0.2 mg/ml) and nialamide (1.24×10^-5M). 1-(3,4-Dichlorophenyl)-3-azabicyclo[3.1.0]hexane hydrochloride at varying concentrations (0.01-2.5 μM) is added in a 0.1 ml volume. The incubation mixtures are agitated at 37° C. for 10 minutes under an atmosphere of 95% oxygen and 5% CO2 in a Dubnoff metabolic shaker to ensure irreversible inhibition of monoamine oxidase (MAO). After this initial pre-incubation period, the tubes are returned to the ice bath. 3H-DA, 3H-NE or 3H-5HT is added in a 0.1 ml volume to give a final concentration of labeled amine of 2×10^-8 M, and the incubation at 37° C. is continued for an additional 4 min. A set of tubes serving as control (uptake at 0° C.) is left in an ice bath. After the final incubation period, the samples are cooled in ice and then centrifuged at 4° C. at 10,000×g. The supernatant fluid is gently poured off from each tube. The surface of the pellet of each sample is washed with 5 ml of ice cold 0.9% sodium chloride which is then aspirated off without disturbing the pellet. The pellet is resuspended in a cintillation fluid ad radioactivity was determined. Protein content in the tissue samples is determined by the method of Lowry et al. Lowry, O. H., Rosebrough, N. J., Farr, A. L. and Randall, R. J. Protein measurement with the folin reagent. J. Biol. Chem. 193:265, 1951. The concentration of drug which inhibits the uptake of the labeled amine by 50% is determined by Hill analysis of the data.

[3] = test system: Serotonin (5-HT) reuptake in rat brain synaptosomes; assay: Inhibition of rat synaptosomal uptake of 3H-serotonin; assay type: biochemical; settings: rat diencephalic-mid brain crude synaptosomes; 3H-5HT 2×10^-8 M; Hill analysis
Source text: as §1, §2, §3

[4] = test system: Male Wistar rats; assay: Free-choice ethanol (6% v/v) vs tap water drinking, Part I; assay type: in vivo, rat; settings: for Ethanol Intake / Ethanol Preference / Food Consumption / Total Fluid Intake: mean ± S.D.
Method: Male Wistar rats are presented with an everyday free-choice between a 6% (v/v) ethanol solution and tap water. Following a seven-day baseline period, which establishes a pattern of stable drinking, only those animals whose consumption is greater than 50% of their total fluid intake are given intraperitoneal injections of three drugs. In part I citalopram (positive control) a neuronal serotonin uptake inhibitor at a dose of 30 mg/kg, […], and 1-(3,4-dichlorophenyl)-3-azabicyclo[3.1.0]hexane hydrochloride, also a serotonin uptake inhibitor, at doses of 5, 10 and 20 mg/kg are given by intraperitoneal injection for seven days. In part II, animals are given intraperitoneal injections of diazepam at a dose of 10 mg/kg and again the positive control used is citalopram at 30 mg/kg. Treatment period for part II also is over a seven-day period. Following the seven-day treatment period, a post-treatment period which lasted for an additional seven days is conducted where the animals are presented with a free choice between ethanol and water in order to determine the rate of recovery of ethanol drinking. During baseline, drug treatment and post-treatment periods, ethanol consumption by the rats is calculated in terms of daily ethanol preference ratio (volume of ethanol per volume of total daily fluid intake) and in terms of daily absolute of ethanol ingested (g/kg body weight).
Two hundred (200) drug-naive male Wistar rats obtained from the Canadian Breeding Farm Laboratories in Charles River Canada are used. All animals weigh between 180-200 g at the beginning of the experiment.
All animals are individually housed in stainless steel cages, in a room regulated for constant temperature, humidity and a 12-hour light/dark cycle (7:00 a.m.-7:00 p.m.). Each cage is equipped with two calibrated glass Richter tubes to deliver the fluids (ethanol and water) to the animals. All animals are presented with a free choice between ethanol and tap water throughout the experiment. The drinking vessels are randomly reversed in order to avoid bias generated by a position preference in the animals. In addition, Purina Rat Chow is made available throughout the experiment on an ad libitum basis.
At approximately the same time every day, 1300 h, the volume in mls of ethanol and tap water consumed by each animal is recorded. All tubes are then removed from the cages, rinsed and refilled with the appropriate fluids, i.e., ethanol solution and tap water. Also, all animals are weighed and their corresponding body weights recorded. At this time, additional food is provided.
Drugs used in part I are dissolved in Ringers solution to form the required doses. Drugs used in part II are suspended in a vehicle which consists of a 2% pre-boiled starch solution containing 5% polyethylene glycol 400 and tween 80 (1 drop/10 ml vehicle). All drugs are administered intraperitoneally according to the schedule (see Treatment period).
Group 2--citalopram 30 mg/kg (n=10)
Group 3--1-(3,4-dichlorophenyl)-3-azabicyclo[3.1.0]hexane hydrochloride 5 mg/kg (n=10)
Group 4--1-(3,4-dichlorophenyl)-3-azabicyclo[3.1.0]hexane hydrochloride 10 mg/kg (n=10)
Group 5--1-(3,4-dichlorophenyl)-3-azabicyclo[3.1.0]hexane hydrochloride 20 mg/kg (n=10)
Post-treatment period:--Upon cessation of the drug treatment period, the animals are presented with a free choice between 6% ethanol and tap water for an additional 7 days in order to determine the rate of recovery of ethanol drinking.

[5] = 5 mg/kg i.p. 7 days, Baseline period
[6] = 5 mg/kg i.p. 7 days, Post-Treatment period
[7] = 10 mg/kg i.p. 7 days, Baseline period
[8] = 10 mg/kg i.p. 7 days, Post-Treatment period
[9] = 20 mg/kg i.p. 7 days, Baseline period
[10] = 20 mg/kg i.p. 7 days, Baseline period, hydrochloride, 20 mg/kg
[11] = 20 mg/kg i.p. 7 days, Post-Treatment period
[12] = 20 mg/kg i.p. 7 days, Post-Treatment period, hydrochloride, 20 mg/kg

Structure (SMILES): Cl.Clc1ccc(C23CNCC2C3)cc1Cl (centres unmarked) [1-(3,4-dichlorophenyl)-3-azabicyclo[3.1.0]hexane hydrochloride]
- Ethanol Intake [4, 5]: 5.02 ± 1.16 g/kg body weight
- Ethanol Preference [4, 5]: 83.67 ± 14.58%
- Food Consumption [4, 5]: 19.74 ± 1.65 g/day
- Total Fluid Intake [4, 5]: 5.1937 ± 0.5254 mL/h/kg
- Ethanol Intake [4, 6]: 4.86 ± 1.78 g/kg body weight
- Ethanol Preference [4, 6]: 82.39 ± 20.87%
- Food Consumption [4, 6]: 19.50 ± 1.41 g/day
- Total Fluid Intake [4, 6]: 5.025 ± 0.9108 mL/h/kg
- Ethanol Intake [4, 7]: 4.55 ± 0.90 g/kg body weight
- Ethanol Preference [4, 7]: 75.05 ± 16.53%
- Food Consumption [4, 7]: 20.43 ± 1.55 g/day
- Total Fluid Intake [4, 7]: 5.3292 ± 0.6617 mL/h/kg
- Ethanol Intake [4, 8]: 2.99 ± 1.42 g/kg body weight
- Ethanol Preference [4, 8]: 55.90 ± 28.51%
- Food Consumption [4, 8]: 21.32 ± 1.96 g/day
- Total Fluid Intake [4, 8]: 4.8087 ± 0.6483 mL/h/kg
- Food Consumption [4, 9]: 20.28 ± 1.12 g/day
- Total Fluid Intake [4, 9]: 4.84 ± 0.4304 mL/h/kg
- Ethanol Intake [4, 10]: 3.79 g/kg body weight and 3.80 ± 1.00 g/kg body weight
- Ethanol Preference [4, 10]: 67.94% and 67.94 ± 17.05%
- Food Consumption [4, 11]: 20.88 ± 2.08 g/day
- Total Fluid Intake [4, 11]: 4.4675 ± 0.4983 mL/h/kg
- Ethanol Intake [4, 12]: 3.04 g/kg body weight and 3.04 ± 1.34 g/kg body weight
- Ethanol Preference [4, 12]: 58.66% and 58.66 ± 23.98%
- Ethanol Preference ([4]; 20 mg/kg i.p. 7 days, Treatment period, hydrochloride, 20 mg/kg): 25.55% and 25.55 ± 17.28%
- Voluntary ethanol consumption (overall statement) ([4]; rats, 5, 10 and 20 mg/kg i.p. 7 days, hydrochloride): reduces ethanol intake and ethanol preferences; also recorded: significant effect in attenuating voluntary ethanol consumption
